Laboratory results: US11897862B2 (Gilead Sciences, Inc., priority 2022, dated 2024)

Experiments:
IKZF1 = target: T1, IKZF1 (Homo sapiens, UniProt Q13422+Q96SW2); assay: HEK293 HiBiT in vitro degradation of IKZF1; type: cell-based; details: for Dmax: HEK293, HEK293 HiBiT, maximum degradation at the highest concentration tested; for DC50: HEK293 HiBiT, 18-24 hr incubation, normalized to DMSO control, read-out: IKZF1 EC50
T1 construct: expressed in transfected cells
In short: (§1)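 Cellular target level is measured as luminescence from an 11-residue HiBiT tag fused via a linker to the C-terminus of IKZF1, IKZF2 or SALL4 in stable Flp-In T-REx HEK293 pools. Reporter expression is induced overnight with doxycycline ([…] final), and compounds act for 18-24 h before lytic detection.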

IKZF2 = IKZF2 (Homo sapiens, UniProt Q96SW2+Q9UKS7); assay: HEK293 HiBiT in vitro degradation of IKZF2; type: cell-based; design: expressed in transfected cells; details: for Dmax: HEK293, HEK293 HiBiT, maximum degradation at the highest concentration tested; for DC50: HEK293 HiBiT, 18-24 hr incubation, normalized to DMSO control, read-out: IKZF2 EC50
IKZF2, sequence (Q9UKS7 1-500 isoform Q9UKS7-2): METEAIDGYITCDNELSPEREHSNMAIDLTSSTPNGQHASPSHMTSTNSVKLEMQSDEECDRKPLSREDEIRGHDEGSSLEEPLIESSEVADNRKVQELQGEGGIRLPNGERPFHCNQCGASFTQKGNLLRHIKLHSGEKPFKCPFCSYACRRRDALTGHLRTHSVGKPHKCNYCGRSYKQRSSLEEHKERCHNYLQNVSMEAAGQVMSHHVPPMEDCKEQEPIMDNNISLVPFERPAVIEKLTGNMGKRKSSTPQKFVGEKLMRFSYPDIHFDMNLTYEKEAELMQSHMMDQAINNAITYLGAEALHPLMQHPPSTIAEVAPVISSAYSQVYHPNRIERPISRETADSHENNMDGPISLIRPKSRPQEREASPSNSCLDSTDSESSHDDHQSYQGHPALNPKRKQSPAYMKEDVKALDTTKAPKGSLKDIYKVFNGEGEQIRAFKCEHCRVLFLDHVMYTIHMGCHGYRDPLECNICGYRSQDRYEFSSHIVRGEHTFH
IKZF2, sequence (Q96SW2 whole entry): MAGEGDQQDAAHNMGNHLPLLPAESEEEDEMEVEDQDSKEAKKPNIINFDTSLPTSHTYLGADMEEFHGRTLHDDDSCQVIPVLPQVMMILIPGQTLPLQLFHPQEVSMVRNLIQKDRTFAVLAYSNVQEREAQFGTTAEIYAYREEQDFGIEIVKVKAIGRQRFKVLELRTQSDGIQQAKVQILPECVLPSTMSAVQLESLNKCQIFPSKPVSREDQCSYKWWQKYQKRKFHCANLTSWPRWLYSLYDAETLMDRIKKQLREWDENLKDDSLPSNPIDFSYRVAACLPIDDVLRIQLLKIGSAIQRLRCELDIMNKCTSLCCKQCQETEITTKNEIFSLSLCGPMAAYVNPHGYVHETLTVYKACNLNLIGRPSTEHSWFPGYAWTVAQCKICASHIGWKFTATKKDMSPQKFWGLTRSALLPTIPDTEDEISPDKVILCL
IKZF2, sequence (Q16531 whole entry partner): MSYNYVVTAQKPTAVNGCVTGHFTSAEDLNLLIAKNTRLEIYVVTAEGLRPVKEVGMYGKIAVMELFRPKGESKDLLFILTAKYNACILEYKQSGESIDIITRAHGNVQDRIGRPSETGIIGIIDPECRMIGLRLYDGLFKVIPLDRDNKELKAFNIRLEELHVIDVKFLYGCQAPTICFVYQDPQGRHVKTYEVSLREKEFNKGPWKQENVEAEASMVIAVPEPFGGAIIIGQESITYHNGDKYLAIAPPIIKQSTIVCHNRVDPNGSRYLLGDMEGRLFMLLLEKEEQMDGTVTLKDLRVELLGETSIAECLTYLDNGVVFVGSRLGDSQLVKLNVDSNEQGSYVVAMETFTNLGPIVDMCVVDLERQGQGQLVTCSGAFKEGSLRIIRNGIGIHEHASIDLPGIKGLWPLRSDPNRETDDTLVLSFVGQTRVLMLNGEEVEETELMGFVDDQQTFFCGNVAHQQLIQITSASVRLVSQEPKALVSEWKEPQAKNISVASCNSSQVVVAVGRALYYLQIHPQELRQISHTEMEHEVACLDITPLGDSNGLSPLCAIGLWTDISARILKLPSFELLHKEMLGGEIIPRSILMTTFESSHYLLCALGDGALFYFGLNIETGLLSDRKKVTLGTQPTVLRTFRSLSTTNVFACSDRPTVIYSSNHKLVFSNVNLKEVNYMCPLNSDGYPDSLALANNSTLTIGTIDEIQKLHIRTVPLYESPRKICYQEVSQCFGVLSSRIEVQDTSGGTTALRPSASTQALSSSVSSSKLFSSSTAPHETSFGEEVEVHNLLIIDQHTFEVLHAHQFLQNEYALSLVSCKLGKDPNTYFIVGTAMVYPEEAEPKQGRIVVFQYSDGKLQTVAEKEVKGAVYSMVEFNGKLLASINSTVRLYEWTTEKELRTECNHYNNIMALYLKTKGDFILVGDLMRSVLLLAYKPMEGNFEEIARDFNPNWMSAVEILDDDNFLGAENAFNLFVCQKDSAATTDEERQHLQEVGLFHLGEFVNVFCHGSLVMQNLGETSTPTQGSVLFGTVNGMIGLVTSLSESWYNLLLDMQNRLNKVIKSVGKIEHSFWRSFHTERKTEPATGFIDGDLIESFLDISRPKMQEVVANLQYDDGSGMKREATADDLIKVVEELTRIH
In short: as §1

T1 sequence (Q13422 whole entry): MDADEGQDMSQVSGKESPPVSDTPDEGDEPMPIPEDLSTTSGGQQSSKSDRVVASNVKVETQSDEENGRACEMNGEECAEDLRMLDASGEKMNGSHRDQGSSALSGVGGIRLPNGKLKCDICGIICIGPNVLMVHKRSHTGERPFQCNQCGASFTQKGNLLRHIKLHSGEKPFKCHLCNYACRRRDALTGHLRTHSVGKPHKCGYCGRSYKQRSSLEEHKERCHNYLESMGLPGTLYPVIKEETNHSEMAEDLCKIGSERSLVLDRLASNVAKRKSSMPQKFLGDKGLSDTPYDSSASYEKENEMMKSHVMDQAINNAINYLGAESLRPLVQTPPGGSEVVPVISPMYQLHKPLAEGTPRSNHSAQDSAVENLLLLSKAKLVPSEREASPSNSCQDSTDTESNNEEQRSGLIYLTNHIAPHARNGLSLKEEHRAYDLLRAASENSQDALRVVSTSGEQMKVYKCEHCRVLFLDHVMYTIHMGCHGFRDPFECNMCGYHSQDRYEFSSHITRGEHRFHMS
T1 sequence (Q96SW2 whole entry): as the sequence (Q96SW2 whole entry) above
T1 sequence (Q16531 whole entry partner): as the sequence (Q16531 whole entry partner) above

Row | Compound | Dmax (IKZF1) | DC50 (IKZF1) | Dmax (IKZF2) | DC50 (IKZF2)
1 | O=C1CCC(N2Cc3cc(C[C@H]4CCCC[C@@H]4NCc4ccccc4)c(F)cc3C2=O)C(=O)N1 (stereo partly drawn) [Example 4, 3-(5-(((1R,2S)-2-(benzylamino)cyclohexyl)methyl)-6-fluoro-1-oxoisoindolin-2-yl)piperidine-2,6-dione] | 26% | 130 nM | 92% | 58 nM
2 | O=C1CCC(N2Cc3c(ccc(C[C@H]4CCCC[C@@H]4N(Cc4ccccc4)Cc4ccccc4)c3F)C2=O)C(=O)N1 (stereo partly drawn) [Example 5, 3-(5-(((1R,2S)-2-(dibenzylamino)cyclohexyl)methyl)-4-fluoro-1-oxoisoindolin-2-yl)piperidine-2,6-dione] | – | > 1000 nM | 92% | 353 nM
3 | O=C1CCC(N2Cc3cc(C[C@H]4CCCC[C@@H]4NCc4cncs4)ccc3C2=O)C(=O)N1 (stereo partly drawn) [Example 6, 3-(1-oxo-5-(((1R,2S)-2-((thiazol-5-ylmethyl)amino)cyclohexyl)methyl)isoindolin-2-yl)piperidine-2,6-dione] | 32% | 122 nM | 90% | 30 nM
4 | O=C1CCC(N2Cc3cc(C[C@H]4CCCC[C@@H]4NCC4CC4)ccc3C2=O)C(=O)N1 (stereo partly drawn) [Example 8, 3-(5-(((1R,2S)-2-((cyclopropylmethyl)amino)cyclohexyl)methyl)-1-oxoisoindolin-2-yl)piperidine-2,6-dione] | 34% | 229 nM | 94% | 47 nM
5 | O=C1CCC(N2Cc3cc(C[C@H]4CCCC[C@@H]4NCc4ccc5ccccc5c4)ccc3C2=O)C(=O)N1 (stereo partly drawn) [Example 9, 3-(5-(((1R,2S)-2-((naphthalen-2-ylmethyl)amino)cyclohexyl)methyl)-1-oxoisoindolin-2-yl)piperidine-2,6-dione] | – | > 1000 nM | 92% | 19 nM
6 | O=C1CCC(N2Cc3cc(C[C@H]4CCCC[C@@H]4NCC4CCC(F)(F)CC4)ccc3C2=O)C(=O)N1 (stereo partly drawn) [Example 10, 3-(5-(((1R,2S)-2-(((4,4-difluorocyclohexyl)methyl)amino)cyclohexyl)methyl)-1-oxoisoindolin-2-yl)piperidine-2,6-dione] | 46% | 388 nM | 96% | 13 nM
7 | O=C1CCC(N2Cc3c(ccc(C[C@H]4CCCC[C@@H]4NCc4ccccc4)c3F)C2=O)C(=O)N1 (stereo partly drawn) [Example 11, 3-(5-(((1R,2S)-2-(benzylamino)cyclohexyl)methyl)-4-fluoro-1-oxoisoindolin-2-yl)piperidine-2,6-dione] | – | > 1000 nM | 98% | 7 nM
8 | CS(=O)(=O)c1ccc(CN[C@H]2CCCC[C@@H]2Cc2ccc3c(c2)CN(C2CCC(=O)NC2=O)C3=O)cc1 (stereo partly drawn) [Example 12, 3-(5-(((1R,2S)-2-((4-(methylsulfonyl)benzyl)amino)cyclohexyl)methyl)-1-oxoisoindolin-2-yl)piperidine-2,6-dione] | – | > 1000 nM | 85% | 106 nM
9 | O=C1CCC(N2Cc3cc(C[C@H]4CCCC[C@@H]4NCc4cc(Cl)cc(Cl)c4)ccc3C2=O)C(=O)N1 (stereo partly drawn) [Example 13, 3-(5-(((1R,2S)-2-((3,5-dichlorobenzyl)amino)cyclohexyl)methyl)-1-oxoisoindolin-2-yl)piperidine-2,6-dione] | – | > 1000 nM | 68% | 79 nM
10 | COc1ccc(CN[C@H]2CCCC[C@@H]2Cc2ccc3c(c2)CN(C2CCC(=O)NC2=O)C3=O)cc1 (stereo partly drawn) [Example 14, 3-(5-(((1R,2S)-2-((4-methoxybenzyl)amino)cyclohexyl)methyl)-1-oxoisoindolin-2-yl)piperidine-2,6-dione] | – | > 1000 nM | 88% | 27 nM
11 | O=C1CCC(N2Cc3cc(C[C@H]4CCCC[C@@H]4NCc4cc(F)cc(F)c4)ccc3C2=O)C(=O)N1 (stereo partly drawn) [Example 15, 3-(5-(((1R,2S)-2-((3,5-difluorobenzyl)amino)cyclohexyl)methyl)-1-oxoisoindolin-2-yl)piperidine-2,6-dione] | – | > 1000 nM | 95% | 20 nM
12 | O=C1CCC(N2Cc3cc(C[C@H]4CCCC[C@@H]4NCc4ccc(C(F)(F)F)cc4)ccc3C2=O)C(=O)N1 (stereo partly drawn) [Example 16, 3-(1-oxo-5-(((1R,2S)-2-((4-(trifluoromethyl)benzyl)amino)cyclohexyl)methyl)isoindolin-2-yl)piperidine-2,6-dione] | – | > 1000 nM | 87% | 42 nM
13 | N#Cc1ccc(CN[C@H]2CCCC[C@@H]2Cc2ccc3c(c2)CN(C2CCC(=O)NC2=O)C3=O)c(F)c1 (stereo partly drawn) [Example 17, 4-((((1S,2R)-2-((2-(2,6-dioxopiperidin-3-yl)-1-oxoisoindolin-5-yl)methyl)cyclohexyl)amino)methyl)-3-fluorobenzonitrile] | – | > 1000 nM | 77% | 70 nM
14 | O=C1CCC(N2Cc3cc(C[C@H]4CCCC[C@@H]4NCc4c(F)cccc4F)ccc3C2=O)C(=O)N1 (stereo partly drawn) [Example 18, 3-(5-(((1R,2S)-2-((2,6-difluorobenzyl)amino)cyclohexyl)methyl)-1-oxoisoindolin-2-yl)piperidine-2,6-dione] | – | > 1000 nM | 89% | 42 nM
15 | O=C1CCC(N2Cc3cc(C[C@H]4CCCC[C@@H]4NCc4ccc(F)cc4F)ccc3C2=O)C(=O)N1 (stereo partly drawn) [Example 19, 3-(5-(((1R,2S)-2-((2,4-difluorobenzyl)amino)cyclohexyl)methyl)-1-oxoisoindolin-2-yl)piperidine-2,6-dione] | – | > 1000 nM | 89% | 30 nM
16 | N#Cc1ccc(CN[C@H]2CCCC[C@@H]2Cc2ccc3c(c2)CN(C2CCC(=O)NC2=O)C3=O)cc1 (stereo partly drawn) [Example 20, 4-((((1S,2R)-2-((2-(2,6-dioxopiperidin-3-yl)-1-oxoisoindolin-5-yl)methyl)cyclohexyl)amino)methyl)benzonitrile] | 35% | 99 nM | 94% | 19 nM

Second part, the compound after the results:

Row | Dmax (IKZF1) | DC50 (IKZF1) | Dmax (IKZF2) | DC50 (IKZF2) | Compound
17 | – | > 1000 nM | 49% | 409 nM | CN(Cc1ccccc1)[C@H]1CCCC[C@@H]1Cc1ccc2c(c1)CN(C1CCC(=O)NC1=O)C2=O (stereo partly drawn) [Example 21, 3-(5-(((1R,2S)-2-(benzyl(methyl)amino)cyclohexyl)methyl)-1-oxoisoindolin-2-yl)piperidine-2,6-dione]
18 | – | > 1000 nM | 86% | 34 nM | O=C1CCC(N2Cc3cc(C[C@H]4CCCC[C@@H]4NCc4cc(F)ccc4F)ccc3C2=O)C(=O)N1 (stereo partly drawn) [Example 22, 3-(5-(((1R,2S)-2-((2,5-difluorobenzyl)amino)cyclohexyl)methyl)-1-oxoisoindolin-2-yl)piperidine-2,6-dione]
19 | – | > 1000 nM | 57% | 530 nM | [2H]c1c([2H])c([2H])c(CN(Cc2c([2H])c([2H])c([2H])c([2H])c2[2H])[C@H]2CCCC[C@@H]2Cc2ccc3c(c2)CN(C2CCC(=O)NC2=O)C3=O)c([2H])c1[2H] (stereo partly drawn) [Example 26, 3-(5-(((1R,2S)-2-(bis((phenyl-d5)methyl)amino)cyclohexyl)methyl)-1-oxoisoindolin-2-yl)piperidine-2,6-dione]
20 | 27% | 70 nM | 97% | 3 nM | CC1(C)CCC(N[C@H]2CCCC[C@@H]2Cc2ccc3c(c2)CN(C2CCC(=O)NC2=O)C3=O)CC1 (stereo partly drawn) [Example 27, 3-(5-(((1R,2S)-2-((4,4-dimethylcyclohexyl)amino)cyclohexyl)methyl)-1-oxoisoindolin-2-yl)piperidine-2,6-dione]
21 | 39% | 574 nM | 96% | 5 nM | O=C1CCC(N2Cc3cc(C[C@H]4CCCC[C@@H]4NC4CC5CC(C5)C4)ccc3C2=O)C(=O)N1 (stereo partly drawn) [Example 29, 3-(5-(((1R,2S)-2-(bicyclo[3.1.1]heptan-3-ylamino)cyclohexyl)methyl)-1-oxoisoindolin-2-yl)piperidine-2,6-dione]
22 | 34% | 42 nM | 81% | 29 nM | O=C1CCC(N2Cc3cc(C[C@H]4CCCC[C@@H]4N4CC(Oc5ccccc5Cl)C4)ccc3C2=O)C(=O)N1 (stereo partly drawn) [Example 30, 3-(5-(((1R,2S)-2-(3-(2-chlorophenoxy)azetidin-1-yl)cyclohexyl)methyl)-1-oxoisoindolin-2-yl)piperidine-2,6-dione]
23 | – | > 1000 nM | 85% | 30 nM | CCOC1CN([C@H]2CCCC[C@@H]2Cc2ccc3c(c2)CN(C2CCC(=O)NC2=O)C3=O)C1 (stereo partly drawn) [Example 31, 3-(5-(((1R,2S)-2-(3-ethoxyazetidin-1-yl)cyclohexyl)methyl)-1-oxoisoindolin-2-yl)piperidine-2,6-dione]
24 | – | > 1000 nM | 90% | 21 nM | O=C1CCC(N2Cc3cc(C[C@H]4CCCC[C@@H]4N4CC(Oc5ccccc5)C4)ccc3C2=O)C(=O)N1 (stereo partly drawn) [Example 32, 3-(1-oxo-5-(((1R,2S)-2-(3-phenoxyazetidin-1-yl)cyclohexyl)methyl)isoindolin-2-yl)piperidine-2,6-dione]
25 | – | > 1000 nM | 82% | 18 nM | O=C1CCC(N2Cc3cc(C[C@H]4CCCC[C@@H]4N4CC(OCc5ccccc5)C4)ccc3C2=O)C(=O)N1 (stereo partly drawn) [Example 33, 3-(5-(((1R,2S)-2-(3-(benzyloxy)azetidin-1-yl)cyclohexyl)methyl)-1-oxoisoindolin-2-yl)piperidine-2,6-dione]
26 | 29% | 51 nM | 80% | 28 nM | O=C1CCC(N2Cc3cc(C[C@H]4CCCC[C@@H]4N4CC5(CN(Cc6ccccc6Cl)C5)C4)ccc3C2=O)C(=O)N1 (stereo partly drawn) [Example 34, 3-(5-(((1R,2S)-2-(6-(2-chlorobenzyl)-2,6-diazaspiro[3.3]heptan-2-yl)cyclohexyl)methyl)-1-oxoisoindolin-2-yl)piperidine-2,6-dione]
